Where a name gives a salt, the structure may show the parent alone. Read-outs that look alike come from different tables or passages of the source.

Results on 18 compounds are retold here after US5256671A, “Azabicyclic compounds, pharmaceutical compositions containing them and their use in therapy” (Merck Sharp & Dohme, Limited, priority 1992, dated 1993).

The assay has as its target T1, human neurokinin-1-receptor (NK1R) (Homo sapiens, UniProt P25103).
T1 construct: expressed in transfected cells
Description: Substance P antagonism assay: 125I-substance P binding to human NK1R expressed in COS or CHO cells. The conditions noted are these: 125I-SP displacement. On the procedure:
To express the cloned human neurokinin-1-receptor (NK1R) transiently in COS, the cDNA for the human NK1R was cloned into the expression vector pCDM9 which was derived from pCDM8 (INVITROGEN) by inserting the ampicillin resistance gene (nucleotide 1973 to 2964 from BLUESCRIPT SK+ (trademark, STRATAGENE, La Jolla, Calif., USA)) into the Sac II site. Transfection of 20 ug of the plasmid DNA into 10 million COS cells was achieved by electroporation in 800 μl of transfection buffer (135 mM NaCl, 1.2 mM CaCl2, 1.2 mM MgCl2, 2.4 mM K2 HPO4, 0.6 mM KH2 PO4, 10 mM glucose, 10 mM N-2-hydroxyethyl-piperazine-N'-2-ethane […] (HEPES) pH 7.4) at 260 V and 950 μF using the IBI GENEZAPPER (trademark IBI, New Haven, Conn., USA). The cells were incubated in 10% fetal calf serum, 2 mM glutamine, 100 U/ml penicillin-streptomycin, and 90% DMEM media (GIBCO, Grand Island, N.Y., USA) in 5% CO2 at 37° C. for three days before the binding assay.
To establish a stable cell line expressing cloned human […], the cDNA was subcloned into the vector pRcCMV (INVITROGEN). Transfection of 20 ug of the plasmid DNA into CHO cells was achieved by electroporation in 800 μl of transfection buffer supplemented with 0.625 mg/ml Herring sperm DNA at 300 V and 950 μF using the IBI GENEZAPPER (IBI). The transfected cells were incubated in CHO media [10% fetal calf serum, 100 U/ml penicillin-streptomycin, 2 mM glutamine, 1/500 hypoxanthine-thymidine (ATCC), 90% IMDM media (JRH BIOSCIENCES, Lenexa, Kans. USA), 0.7 mg/ml G418 (GIBCO)] in 5% CO2 at 37° C. until colonies were visible. Each colony was separated and propagated. The cell clone with the highest number of human NK1R was selected for subsequent applications such as drug screening.
The binding assay of human NK1R expressed in either COS or CHO cells is based on the use of ^125 I-substance P (^125 I-SP, from DU PONT, Boston, Mass.) as a radioactively labeled ligand which competes with unlabeled substance P or any other ligand for binding to the human NK1R. Monolayer cell cultures of COS or CHO were dissociated by the non-enzymatic solution (SPECIALTY MEDIA, Lavellette, N.J.) and resuspended in appropriate volume of the binding buffer (50 mM Tris pH 7.5, 5 mM MnCl2, 150 mM NaCl, 0.04 mg/ml bacitracin, 0.004 mg/ml leupeptin, 0.2 mg/ml BSA, 0.01 mM phosphoramidon) such that 200 μl of the cell suspension would give rise to about 10,000 cpm of specific ^125 I-SP binding (approximately 50,000 to 200,000 cells). In the binding assay, 200 μl of cells were added to a tube containing 20 μl of 1.5 to 2.5 nM of ^125 I-SP and 20 μl of unlabeled substance P or any other test compound. The tubes were incubated at 4° C. or at room temperature for 1 hour with gentle shaking. The bound radioactivity was separated from unbound radioactivity by GF/C filter (BRANDEL, Gaithersburg, Md.) which was pre-wetted with 0.1% polyethylenimine. The filter was washed with 3 ml of wash buffer (50 mM Tris pH 7.5, 5 mM MnCl2, 150 mM NaCl) three times and its radioactivity was determined by gamma counter.

T1 sequence (P25103 whole entry): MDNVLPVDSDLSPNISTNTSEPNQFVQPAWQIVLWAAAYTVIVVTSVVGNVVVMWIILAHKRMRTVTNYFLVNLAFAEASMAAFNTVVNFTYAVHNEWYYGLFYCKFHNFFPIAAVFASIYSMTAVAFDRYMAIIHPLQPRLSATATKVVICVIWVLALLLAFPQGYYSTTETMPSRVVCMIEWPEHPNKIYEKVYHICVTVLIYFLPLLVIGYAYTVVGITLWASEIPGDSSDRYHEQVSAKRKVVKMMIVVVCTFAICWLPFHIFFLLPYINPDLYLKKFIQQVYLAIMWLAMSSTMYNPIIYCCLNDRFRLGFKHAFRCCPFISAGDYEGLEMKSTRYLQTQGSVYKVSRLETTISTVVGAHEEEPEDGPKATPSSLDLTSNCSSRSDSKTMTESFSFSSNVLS

Take `OC(C=C1C2CCN(CC2)C1C(c1ccccc1)c1ccccc1)c1cccc(C(F)(F)F)c1` (single isomer, unassigned) [3 (ISOMER B), E-3-[Methylene(3-trifluoromethylphenyl)hydroxymethyl]-2-benzyhydryl quinuclidine]: the IC50 (commonly the point on the concentration scale where inhibition reaches its midpoint) (IC50 @ NK1R) came out at 110 nM.
Consider `Cc1cc(C)cc(C(=O)C=C2C3CCN(CC3)C2C(c2ccccc2)c2ccccc2)c1` (stereo not drawn) [Example 12, E-3-[Methylene-2-keto(3,5-dimethyl)phenyl]-2-benzhydryl quinuclidine], for which, where the note is “read-out: IC50 @ NK1R”, the IC50 is 140 nM.
Same read-out and setting: as for `FC(C=C1C2CCN(CC2)C1C(c1ccccc1)c1ccccc1)c1cc(C(F)(F)F)cc(C(F)(F)F)c1` (single isomer, unassigned; isomer b) [Example 11, E-3-[Methylene-2-(3,5-bistrifluoromethyl)fluoromethyl]-2-benzhydrylquinuclidine (Isomer B)], the figure is 9 nM.
As to `OC(C=C1C2CCN(CC2)C1C(c1ccccc1)c1ccccc1)c1cccc(C(F)(F)F)c1` (single isomer, unassigned) [3 (ISOMER A), E-3-[Methylene(3-trifluoromethylphenyl)hydroxymethyl]-2-benzyhydryl quinuclidine], the IC50 (IC50 @ NK1R) was 30 nM.
As for `OC(C=C1C2CCN(CC2)C1C(c1ccccc1)c1ccccc1)c1cc(C(F)(F)F)cc(C(F)(F)F)c1` (single isomer, unassigned) [9 (ISOMER A), E-3-[Methylene-2-(3,5-bistrifluoromethyl)hydroxymethyl]-2-benzhydrylquinuclidine], for the setting “read-out: IC50 @ NK1R”, the IC50 came out at 0.9 nM.
With `COc1ccccc1C(O)C=C1C2CCN(CC2)C1C(c1ccccc1)c1ccccc1` (single isomer, unassigned) [1 (ISOMER A)], the IC50 (IC50 @ NK1R) was 50 nM.
For `OC(C=C1C2CCN(CC2)C1Cc1ccccc1)c1cc(C(F)(F)F)cc(C(F)(F)F)c1` (single isomer, unassigned) [15 (DIASTEREOMER B), E-3-[Methylene-(3,5-bistrifluoromethylphenyl)hydroxymethyl]-2-benzyl quinuclidine], the IC50 (read-out: IC50 @ NK1R) came to 6 nM.
Same read-out and setting: as for `O=C(C=C1C2CCN(CC2)C1C(c1ccccc1)c1ccccc1)c1cc(C(F)(F)F)cc(C(F)(F)F)c1` (stereo not drawn) [Example 7, E-3-[Methylene(3,5-bistrifluoromethylphenyl)oxo]-2-benzhydryl quinuclidine], the figure is more than 300 nM.
With `C(Cc1ccccc1)=C1C2CCN(CC2)C1C(c1ccccc1)c1ccccc1` (stereo not drawn) [Example 5, E-3-[Methylenebenzyl]-2-benzhydryl quinuclidine], the IC50 (IC50 @ NK1R) came out at 170 nM.
The same measure, in the same setting: under `COc1ccccc1C(O)C=C1C2CCN(CC2)C1C(c1ccccc1)c1ccccc1` (single isomer, unassigned) [1 (ISOMER B)] stands 130 nM; under `OC(C=C1C2CCN(CC2)C1C(c1ccccc1)c1ccccc1)c1ccc(F)cc1` (single isomer, unassigned) [2 (ISOMER B), E-[3-[Methylene(4-fluorophenyl)hydroxymethyl]-2-benzhydryl)quinuclidine], 197 nM.
`FC(F)(F)c1cccc(CC=C2C3CCN(CC3)C2C(c2ccccc2)c2ccccc2)c1` (stereo not drawn) [Example 6, E-3-[Methylene(3-trifluoromethyl)benzyl]-2-benzhydryl quinuclidine]: the IC50 (read-out: IC50 @ NK1R) came to 100 nM.
`Cc1cc(C)cc(C(O)C=C2C3CCN(CC3)C2C(c2ccccc2)c2ccccc2)c1` (stereo not drawn) [Example 13, E-[3-Methylene(3,5-dimethylphenyl)hydroxymethyl]-2-benzhydryl quinuclidine] displayed an IC50 (IC50 @ NK1R) of 13 nM.
In the case of `FC(C=C1C2CCN(CC2)C1C(c1ccccc1)c1ccccc1)c1cc(C(F)(F)F)cc(C(F)(F)F)c1` (single isomer, unassigned; isomer a) [Example 10, E-3-[Methylene-2-(3,5-bistrifluoromethyl)fluoromethyl]-2-benzhydrylquinuclidine (Isomer A) oxalate salt], the concentration for half-maximal inhibition (IC50) (read-out: IC50 @ NK1R) was found to be 5 nM.
On to `Cc1cccc(C)c1C(O)C=C1C2CCN(CC2)C1C(c1ccccc1)c1ccccc1` (stereo not drawn) [Example 14, E[3-Methylene(2,6-dimethylphenyl)hydroxymethyl]-2-benzhydryl quinuclidine], for which the IC50 (read-out: IC50 @ NK1R) was determined as 90 nM.
Turning to `O=C(C=C1C2CCN(CC2)C1C(c1ccccc1)c1ccccc1)c1ccccc1` (stereo not drawn) [Example 8, E-3-[Methyleneketophenyl]-2-benzhydrylquinuclidine], the IC50 (read-out: IC50 @ NK1R) worked out at 190 nM.
On the same count and under the same terms, as for `OC(C=C1C2CCN(CC2)C1C(c1ccccc1)c1ccccc1)c1ccccc1` (single isomer, unassigned) [4 (ISOMER B), E-3-[Methylene(hydroxymethyl)phenyl]-2-benzhydryl quinuclidine], the figure is 200 nM.
In the case of `OC(C=C1C2CCN(CC2)C1Cc1ccccc1)c1cc(C(F)(F)F)cc(C(F)(F)F)c1` (single isomer, unassigned) [15 (DIASTEREOMER A), E-3-[Methylene-(3,5-bistrifluoromethylphenyl)hydroxymethyl]-2-benzyl quinuclidine], the IC50 (read-out: IC50 @ NK1R) amounted to 63 nM.
